Measurements published in patent publication US20020183313A1, “1,4-benzodiazepinones and their uses as CCK antagonists” (Fujisawa Pharmaceutical Co., Ltd., priority 1996, published 2002).

melting point | SMILES
115 to 120 °C | CCC1=NC(NC(=O)Nc2cccc(C)c2)C(=O)N(CC(=O)N2CC3CCC(CC3)C2)c2ccccc21 (racemic)
121 to 123 °C | CCCCC1=NC(NC(=O)Nc2cccc(C)c2)C(=O)N(CC(=O)N2CC3CCC(CC3)C2)c2ccccc21 (racemic)
164 to 166 °C | Cc1cccc(NC(=O)NC2N=C(CC3CCCCC3)c3ccccc3N(CC(=O)N3CC4CCC(CC4)C3)C2=O)c1 (racemic)
218 to 222 °C (dec.) | O=C(Nc1cccc(-c2nnn[nH]2)c1)NC1N=C(CC2CCCCC2)c2ccccc2N(CC(=O)N2CC3CCC(CC3)C2)C1=O (racemic)
132.1 to 146 °C | Cc1cccc2c1N(CC(=O)c1ccccc1O)C(=O)C(NC(=O)Nc1cccc(-c3nnnn3C(c3ccccc3)(c3ccccc3)c3ccccc3)c1)N=C2c1ccccc1F (racemic)
109.6 to 113 °C | Cc1cccc2c1N(CC(=O)c1ccccc1OCC(=O)O)C(=O)C(NC(=O)Nc1cccc(-c3nnn[nH]3)c1)N=C2c1ccccc1F (racemic)
236.8 to 242.1 °C | Cc1cccc2c1N(CC(=O)N1CC3CCC(CC3)C1)C(=O)C(NC(=O)Nc1cccc(C=O)c1)N=C2c1ccccc1F (racemic)
196 to 199 °C | Cc1cccc2c1N(CC(=O)N1CC3CCC(CC3)C1)C(=O)C(NC(=O)Nc1cccc(C=NO)c1)N=C2c1ccccc1F (racemic)
192 to 216.6 °C (dec.) | CC(=O)N(C(C)=O)c1ccccc1C(=O)CN1C(=O)C(NC(=O)Nc2cccc(-c3nnn[nH]3)c2)N=C(c2ccccc2F)c2cccc(C)c21 (racemic)
> 250 °C | Cc1cccc2c1N(CC(=O)N1CC3CCC(CC3)C1)CC(NC(=O)Nc1cccc(Br)c1)N=C2c1ccccc1F (racemic)
199.1 to 207.8 °C | CC(=NO)c1cccc(NC(=O)NC2N=C(c3ccccc3F)c3cccc(C)c3N(CC(=O)N3CC4CCC(CC4)C3)C2=O)c1 (racemic)
196.4 to 197.5 °C | Cc1cccc(NC(=O)NC2N=C(C3CCCCC3)c3cccc(C)c3N(C)C2=O)c1 (racemic)
190.2 to 196.2 °C | Cc1cccc(NC(=O)NC2N=C(c3ccccc3F)c3cccc(C)c3N(CC(=O)c3ccccc3C)C2=O)c1 (racemic)
215.8 to 220.3 °C | Cc1ccccc1C(=O)CN1C(=O)C(NC(=O)Nc2cccc(-c3nnn[nH]3)c2)N=C(c2ccccc2F)c2cccc(C)c21 (racemic)
168.1 to 176.3 °C | Cc1ccccc1C(=O)CN1C(=O)C(NC(=O)Nc2cccc(C(=O)O)c2)N=C(c2ccccc2F)c2cccc(C)c21 (racemic)
132 to 135 °C | CC(C)C1=NC(NC(=O)Nc2ccccc2)C(=O)N(CC(=O)N2CC3CCC(CC3)C2)c2ccccc21 (racemic)
138 to 140 °C | CC(C)C1=NC(NC(=O)NC2CCCCC2)C(=O)N(CC(=O)N2CC3CCC(CC3)C2)c2ccccc21 (racemic)
212.2 to 222.1 °C | CC(C)c1cccc2c1N(CC(=O)N1CC3CCC(CC3)C1)C(=O)C(NC(=O)Nc1cccc(-c3nnn[nH]3)c1)N=C2c1ccccc1F (racemic)
183.3 to 186.8 °C | Cc1cccc(NC(=O)NC2N=C(c3ccccc3F)c3cccc(C(C)C)c3N(CC(=O)N3CC4CCC(CC4)C3)C2=O)c1 (racemic)
192.8 to 203.9 °C | Cc1cccc2c1N(CC(=O)N1CC3CCC(CC3)C1)C(=O)C(NC(=O)Nc1cccc(O)c1)N=C2c1ccccc1F (racemic)
186.2 to 197.6 °C | Cc1cccc2c1N(CC(=O)N1CC3CCC(CC3)C1)C(=O)C(NC(=O)Nc1cccc(-c3nnn[nH]3)c1)N=C2C1CCCCC1 (racemic)
173.9 to 182 °C | Cc1cccc2c1N(Cc1ccccn1)C(=O)C(NC(=O)Nc1cccc(-c3nnn[nH]3)c1)N=C2c1ccccc1F (racemic)
172 to 180.5 °C | O=C(Nc1cccc(-c2nnn[nH]2)c1)NC1N=C(c2ccccc2F)c2cccc(Cl)c2N(CC(=O)N2CC3CCC(CC3)C2)C1=O (racemic)
123 to 126 °C | Cc1cccc(NC(=O)NC2N=C(C(C)C)c3ccccc3N(CC(=O)N3CC4CCC(CC4)C3)C2=O)c1 (racemic)
160.4 to 180.7 °C (dec.) | Cc1cccc2c1N(CC(=O)C(C)(C)C)C(=O)C(NC(=O)Nc1cccc(-c3nnn[nH]3)c1)N=C2c1ccccc1F (racemic)
150.8 to 152.1 °C | CC1=NC(NC(=O)Nc2cccc(C)n2)C(=O)N(CC(=O)N2CC3CCC(CC3)C2)c2c(C)cccc21 (racemic)
152 to 154.1 °C | CC1=NC(NC(=O)Nc2cc(C)ccn2)C(=O)N(CC(=O)N2CC3CCC(CC3)C2)c2c(C)cccc21 (racemic)

melting point | SMILES
190.9 to 193.1 °C | CC1=NC(NC(=O)Nc2cccc(N(C)C)c2)C(=O)N(CC(=O)N2CC3CCC(CC3)C2)c2c(C)cccc21.Cl (racemic)
216.5 to 218.7 °C | CC1=NC(NC(=O)Nc2cccc(C)c2)C(=O)N(CC(=O)N2CC3CCC(CC3)C2)c2c1cccc2N(C)C.Cl (racemic)
151.4 to 174.2 °C (dec.) | Cc1cccc2c1N(CC(=O)OC(C)(C)C)C(=O)C(NC(=O)Nc1cccc(-c3nnn[nH]3)c1)N=C2c1ccccc1F (racemic)
195 to 218.4 °C (dec.) | Cc1cccc2c1N(CC(=O)C13CC4CC(CC(C4)C1)C3)C(=O)C(NC(=O)Nc1cccc(-c3nnn[nH]3)c1)N=C2c1ccccc1F (racemic)
173.5 to 189.8 °C | CC(=O)CN1C(=O)C(NC(=O)Nc2cccc(-c3nnn[nH]3)c2)N=C(c2ccccc2F)c2cccc(C)c21 (racemic)
194.4 to 198.1 °C | Cc1cccc2c1N(CC(=O)c1cccc([N+](=O)[O-])c1)C(=O)C(NC(=O)Nc1cccc(-c3nnn[nH]3)c1)N=C2c1ccccc1F (racemic)
192.2 to 197.1 °C | Cc1cccc2c1N(CC(=O)c1ccccc1[N+](=O)[O-])C(=O)C(NC(=O)Nc1cccc(-c3nnn[nH]3)c1)N=C2c1ccccc1F (racemic)
189.9 to 192.8 °C | Cc1cccc(NC(=O)NC2N=C(C(C)C)c3cccc(C)c3N(CC(=O)N3CC4CCC(CC4)C3)C2=O)c1 (racemic)
168.1 to 171.1 °C | CC1=NC(NC(=O)Nc2cccc(Br)c2)C(=O)N(CC(=O)N2CC3CCC(CC3)C2)c2c(C)cccc21 (racemic)
181.2 to 185.1 °C | CC1=NC(NC(=O)Nc2cccc(Cl)c2)C(=O)N(CC(=O)N2CC3CCC(CC3)C2)c2c(C)cccc21 (racemic)
237.2 to 238.5 °C | CSc1cccc(NC(=O)NC2N=C(C)c3cccc(C)c3N(CC(=O)N3CC4CCC(CC4)C3)C2=O)c1 (racemic)
169.6 to 170.7 °C | COc1cccc(NC(=O)NC2N=C(C)c3cccc(C)c3N(CC(=O)N3CC4CCC(CC4)C3)C2=O)c1 (racemic)
176.9 to 179.1 °C | CC1=NC(NC(=O)Nc2cccc(C)c2)C(=O)N(CC(=O)N2CC3CCC(CC3)C2)c2c(C)cccc21 (racemic)
145.6 to 149.2 °C | Cc1cccc(NC(=O)NC2N=C(CN3CC4CCC(CC4)C3)c3cccc(C)c3N(C)C2=O)c1 (racemic)
178.1 to 182.1 °C | COCC1=NC(NC(=O)Nc2cccc(C)c2)C(=O)N(CC(=O)N2CC3CCC(CC3)C2)c2c(C)cccc21 (racemic)
172 to 174.4 °C | Cc1cccc(NC(=O)NC2N=C(C3CC3)c3cccc(C)c3N(CC(=O)N3CC4CCC(CC4)C3)C2=O)c1 (racemic)
130.1 to 133 °C | CCC1=NC(NC(=O)Nc2cccc(C)c2)C(=O)N(CC(=O)N2CC3CCC(CC3)C2)c2c(C)cccc21 (racemic)
177.7 to 179.2 °C | Cc1cccc(NC(=O)NC2N=C(C3CC3)c3cccc(C)c3N(CC(=O)N3CCCCCCC3)C2=O)c1 (racemic)
150 to 153 °C | CC1=NC(NC(=O)Nc2cccc(C)c2)C(=O)N(CC(=O)N2CC3CCC(CC3)C2)c2ccccc21 (racemic)
134 to 135 °C | CSc1cccc(NC(=O)NC2N=C(C(C)C)c3ccccc3N(CC(=O)N3CC4CCC(CC4)C3)C2=O)c1 (racemic)
133 to 134.5 °C | CC(=O)OCC1=NC(NC(=O)Nc2cccc(C)c2)C(=O)N(CC(=O)N2CC3CCC(CC3)C2)c2c(C)cccc21 (racemic)
225 to 229 °C | CC1=NC(NC(=O)Nc2cccc(C)c2)C(=O)N(Cc2ncccc2C)c2ccccc21 (racemic) [8(1), N-[(3RS)-2,3-dihydro-5-methyl-1-(3-methylpyridin-2-yl)methyl-2-oxo-1H-1,4-benzodiazepin-3-yl]-N′-(3-methylphenyl)urea]
215 to 219 °C | CC(=O)c1sccc1CN1C(=O)C(NC(=O)Nc2cccc(C)c2)N=C(C)c2ccccc21 (racemic) [8(3), N-[(3RS)-1-(2-acetylthiophen-3-yl)methyl-2,3-dihydro-5-methyl-2-oxo-1H-1,4-benzodiazepin-3-yl]-N′-(3-methylphenyl)urea]
151 to 154 °C | Cc1cccc(NC(=O)NC2N=C(CCC(C)C)c3ccccc3N(Cc3ncccc3C)C2=O)c1 (racemic) [9(1), N-[(3RS)-2,3-dihydro-5-(3-methylbutyl)-1-(3-methylpyridin-2-yl)methyl-2-oxo-1H-1,4-benzodiazepin-3-yl]-N′-(3-methylphenyl)urea]
190 to 195 °C | CC(=O)c1sccc1CN1C(=O)C(NC(=O)Nc2cccc(C)c2)N=C(CCC(C)C)c2ccccc21 (racemic) [9(2), N-[(3RS)-1-(2-acetylthiophen-3-yl)methyl-2,3-dihydro-5-(3-methylbutyl)-2-oxo-1H-1,4-benzodiazepin-3-yl]-N′-(3-methylphenyl)urea]
198.9 to 200.7 °C | Cc1cccc2c1N(C)C(=O)C(NC(=O)Nc1cccc(-c3nnn[nH]3)c1)N=C2C1CCCCC1 (racemic) [17(1), N-[(3RS)-5-Cyclohexyl-2,3-dihydro-1,9-dimethyl-2-oxo-1H-1,4-benzodiazepin-3-yl]-N′-[3-(tetrazol-5-yl)phenyl]urea]
165 to 176.6 °C | Cc1ccccc1C(=O)CN1C(=O)C(NC(=O)Nc2cccc(-c3nnn[nH]3)c2)N=C(C2CCCCC2)c2cccc(C)c21 (racemic) [24(1), N-[(3RS)-5-Cyclohexyl-9-methyl-2,3-dihydro-1-(2-methylphenacyl)-2-oxo-1H-1,4-benzodiazepin-3-yl]-N′-[3-(tetrazol-5-yl)phenyl]urea]
